Molecules are shown by their SMILES.

The assay concerns the target T1, thrombin receptor (Homo sapiens, UniProt P25116).
T1 construct: tissue North Jersey Blood Center (East Orange, N.J.); host or cells: platelet membranes prepared from platelet concentrates
T1 sequence (P25116 22-425): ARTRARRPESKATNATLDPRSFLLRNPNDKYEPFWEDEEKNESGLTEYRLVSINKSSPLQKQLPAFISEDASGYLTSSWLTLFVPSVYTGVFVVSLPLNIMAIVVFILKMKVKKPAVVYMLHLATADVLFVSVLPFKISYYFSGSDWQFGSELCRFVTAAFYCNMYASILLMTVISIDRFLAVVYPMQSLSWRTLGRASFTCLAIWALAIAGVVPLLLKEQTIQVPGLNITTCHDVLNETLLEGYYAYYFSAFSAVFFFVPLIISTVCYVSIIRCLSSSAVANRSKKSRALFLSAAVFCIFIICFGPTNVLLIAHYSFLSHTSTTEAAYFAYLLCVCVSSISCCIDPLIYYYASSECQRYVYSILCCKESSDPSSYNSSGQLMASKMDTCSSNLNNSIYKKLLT
In words: High throughput thrombin receptor radioligand binding assay ([3H]haTRAP, platelet membranes). The note with it: [3H]haTRAP binding to platelet membranes. The method, then:
A(pF-F)R(ChA)(hR)(I2—Y)—NH2 (1.03 mg) and 10% Pd/C (5.07 mg) were suspended in DMF (250 μl) and diisopropylethylamine (10 μl). The vessel was attached to the tritium line, frozen in liquid nitrogen and evacuated. Tritium gas (342 mCi) was then added to the flask, which was stirred at room temperature for 2 hours. At the completion of the reaction, the excess tritium was removed and the reacted peptide solution was diluted with DMF (0.5 ml) and filtered to remove the catalyst. The collected DMF solution of the crude peptide was diluted with water and freeze dried to remove the labile tritium. The solid peptide was redissolved in water and the freeze drying process repeated. The tritiated peptide ([^3H]haTRAP) was dissolved in 0.5 ml of 0.1% aqueous TFA and purified by HPLC using the following conditions: column, Vydac™ C18, 25 cm×9.4 mm I.D.; mobile phase, (A) 0.1% TFA in water, (B) 0.1% TFA in CH3CN; gradient, (A/B) from 100/0 to 40/60 over 30 min; flow rate, 5 ml/min; detection, UV at 215 nm. The radiochemical purity of [^3H]haTRAP was 99% as analyzed by HPLC. A batch of 14.9 mCi at a specific activity of 18.4 Ci/mmol was obtained.
Platelet membranes were prepared using a modification of the method of Natarajan et al. (Natarajan et al, Int. J. Peptide Protein Res. 45:145-151 (1995)) from 20 units of platelet concentrates obtained from the North Jersey Blood Center (East Orange, N.J.) within 48 hours of collection. All steps were carried out at 4° C. under approved biohazard safety conditions. Platelets were centrifuged at 100×g for 20 minutes at 4° C. to remove red cells. The supernatants were decanted and centrifuged at 3000×g for 15 minutes to pellet platelets. Platelets were re-suspended in 10 mM Tris-HCl, pH 7.5, 150 mM NaCl, 5 mM EDTA, to a total volume of 200 ml and centrifuged at 4400×g for 10 minutes. This step was repeated two additional times. Platelets were re-suspended in 5 mM Tris-HCl, pH 7.5, 5 mM EDITA to a final volume of approximately 30 ml and were homogenized with 20 strokes in a Dounce™ homogenizer. Membranes were pelleted at 41,000×g, re-suspended in 40-50 ml 20 mM Tris-HCl, pH 7.5, 1 mM EDTA, 0.1 mM dithiothreitol, and 10 ml aliquots were frozen in liquid N2 and stored at −80° C. To complete membrane preparation, aliquots were thawed, pooled, and homogenized with 5 strokes of a Dounce homogenizer. Membranes were pelleted and washed 3 times in 10 mM triethanolamine-HCl, pH 7.4, 5 mM EDTA, and re-suspended in 20-25 ml 50 mM Tris-HCl, pH 7.5, 10 mM MgCl2, 1 mM EGTA, and 1% DMSO. Aliquots of membranes were frozen in liquid N2 and stored at −80° C. Membranes were stable for at least 3 months. 20 units of platelet concentrates typically yielded 250 mg of membrane protein. Protein concentration was determined by a Lowry assay (Lowry et al., J. Biol. Chem., 193:265-275 (1951)).
Thrombin receptor antagonists were screened using a modification of the thrombin receptor radioligand binding assay of Ahn et al. (Ahn et al., Mol. Pharmacol, 51:350-356 (1997)). The assay was performed in 96 well Nunc plates (Cat. No. 269620) at a final assay volume of 200 μl. Platelet membranes and [^3H]haTRAP were diluted to 0.4 mg/ml and 22.2 nM, respectively, in binding buffer (50 mM Tris-HCl, pH 7.5, 10 mM MgCl2, 1 mM EGTA, 0.1% BSA). Stock solutions (10 mM in 100% DMSO) of test compounds were further diluted in 100% DMSO. Unless otherwise indicated, 10 μl of diluted compound solutions and 90 μl of radioligand (a final concentration of 10 nM in 5% DMSO) were added to each well, and the reaction was started by the addition of 100 μl of membranes (40 μg protein/well). […] Compounds were tested at three concentrations (0.1, 1 and 10 μM). The plates were covered and vortex-mixed gently on a Lab-Line™ Titer Plate Shaker for 1 hour at room temperature. Packard UniFilter™ GF/C filter plates were soaked for at least 1 hour in 0.1% polyethyleneimine. […]
By IC50 is commonly meant the concentration at which inhibition is half-maximal. Lower therefore signals greater potency in that assay. One may read the Ki as a measure of affinity in units of concentration, obtained from inhibition or displacement. A low value points to higher affinity. Regarding `C[C@@H]1[C@@H](C)[C@H](/C=C/c2ccc(-c3ccccc3C#N)cn2)C[C@H]2OC(=O)C[C@@H]12` [Compound 2], the half-maximal inhibitory concentration (IC50) came to 16 nM and the affinity, expressed as Ki, was 11 nM.

Regarding `O=C1C[C@H]2[C@@H]3CCCC[C@H]3[C@H](/C=C/c3ccc(-c4cccc(F)c4)cn3)C[C@H]2O1` [Compound 3], the IC50 stood at 4.8 nM and the inhibitory constant (Ki) was 3.1 nM.

`O=C1C[C@H]2[C@@H]3CCCC[C@H]3[C@H](/C=C/c3ccc(-c4cc(Cl)ccc4Cl)cn3)C[C@H]2O1` [Compound 4] returned an IC50 of 20 nM and a Ki of 13 nM.

In the case of `C[C@@H]1[C@@H](C)[C@H](/C=C/c2ccc(-c3ccccc3C#N)cn2)C[C@@H]2OC(=O)C[C@@H]12` [Compound 1], the concentration for half-maximal inhibition (IC50) is 45 nM.

In turn, `N#Cc1cccc(-c2ccc(/C=C/[C@@H]3C[C@H]4OC(=O)C[C@H]4[C@@H]4CCCC[C@H]43)nc2)c1` [Compound 5] had an IC50 of 6.7 nM and a Ki of 4.3 nM.

These data come from patent US8022088B2, “Substituted bicyclic and tricyclic thrombin receptor antagonists” (Schering Corporation, priority 2006, dated 2011).
